This is an account of results in US20260297060A1, “COMPOUNDS FOR THE DEGRADATION OF MUTANT BRAF” (C4 THERAPEUTICS, INC., priority 2023, published 2026).

Data set [1] can be described thus: Example 6 pharmacokinetics assay for PKPD study (plasma, tumor, liver). Type of data set: in vivo, BALB/c nude mice. The note with it: 10 mg/kg, single dose; for concentration at 6 h / concentration at 12 h / concentration at 1 h / concentration at 24 h: mouse, po. Here is the method: For the pharmacokinetic/pharmacodynamic (PKPD) study, compounds were tested in the A375 human melanoma xenografts. Known BRAF inhibitors encorafenib, and dabrafenib were used as positive controls. Encorafenib, dabrafenib, Compound 83, Compound 93, Compound 70, and Compound 54 were administered to BALB/c nude mice bearing A375 tumors on PG-D1 and dosed orally (PO) once. Encorafenib was dosed at 35 mg/kg. Dabrafenib was dosed at 100 mg/kg. Compound 83, Compound 93, Compound 70, and Compound 54 were dosed at 10 mg/kg. The plasma and tumor samples were collected at 1, 6, 12 and 24 hours, and liver samples were collected at 6 hours and 12 hours post the single dose. This study was non-GLP study.
(§1) The plasma samples were collected at predetermined time points for PK analysis. The mice were euthanized at predetermined time points post the treatment. The blood samples were collected into the 1.5 mL Eppendorf tubes containing 15 μL of 0.5 M EDTA-K2. And then the anticoagulant blood samples were centrifuged at 2,500 g at 4° C. for 15 minutes. The plasma samples were separated into 2 aliquots. The 1st was used for PK analysis, and the 2nd served as backup. The samples were stored at −80° C. before bioanalysis.
The tumor samples were collected at predetermined time points for PK and WB analysis (B-RAF and p-ERK). The tumor was dissected out and split into 3 parts. The 1st part was used for PK analysis, the 2nd part was used for WB analysis and the last one served as backup for study. The samples were transferred into pre-labeled tubes and quickly froze in liquid nitrogen within 2 minutes after dissection. The samples were stored at −80° C. before bioanalysis.
(§2) Liver samples were collected at predetermined time points for PK analysis. The left lobe of the liver was dissected out and split into 2 parts. The 1st part was used for PK analysis and the 2nd part served as the backup for the study. The samples were transferred into pre-labeled tubes and quickly froze in liquid nitrogen within 2 minutes after dissection. The samples were stored at −80° C. before bioanalysis.
For PKPD study, the harvested plasma, tumor and liver were processed for pharmacokinetics analysis by LC/MS/MS with a concentration range of 0.5-1000 ng/mL for Encorafenib and Dabrafenib in plasma, 0.05-100 ng/mL for Encorafenib and Dabrafenib in tumor, 0.2-200 ng/mL for Encorafenib and Dabrafenib in liver, 2.0-2000 ng/mL for compound 93, compound 83, compound 54 and compound 70 in liver, 50.0-50000 ng/mL for compound 83 and compound 70 in plasma, 0.5-1000 ng/mL for compound 83 and compound 70 in tumor, 1.0-2000 ng/mL for compound 93 in plasma, 10.0-20000 ng/mL for compound 54 in plasma, 0.5-500 ng/mL for compound 93 and compound 54 in tumor.

Data set [2] in a line: Example 7 pharmacokinetics assay for efficacy study (plasma, liver). The note with it: mouse, po, 10 mg/kg, p.o. The data set is classed as in vivo, BALB/c nude mice. How it is done:
For efficacy study, agents were tested in the A375 human melanoma xenografts. Compound 118, Compound 156, and Compound 180 were administered to BALB/c nude mice bearing A375 xenografts from day 0 and dosed p.o. twice per day (BID). Compound 141 was administered from day 0 and dosed p.o. twice per day (BID) or dosed p.o. daily (QD) from day 1. Compound 141, Compound 118, Compound 156, and Compound 180 were dosed at 10 mg/kg for 14 days. The known BRAF inhibitor Dabrafenib was used as a positive control. Dabrafenib was administered from day 1 and dosed p.o. daily (QD) for 14 days and dosed at 100 mg/kg.
as §1, §2
The harvested plasma and liver samples were processed for pharmacokinetics analysis by LC-MS/MS with a concentration range of 0.500~500 ng/mL for Dabrafenib in plasma and liver homogenate, 20.0~20,000 ng/mL for Compound 141, Compound 180 and Compound 118 in plasma and liver, 10.0~10,000 ng/mL for Compound 156 in plasma and liver.

[3] abbreviates: liver, 6 h, read-out: Concentration in Liver (mean ± SEM).
Where [4] appears, read: liver, 12 h, read-out: Concentration in Liver (mean ± SEM).
[5] abbreviates: plasma, 1 h, read-out: Concentration in Plasma (mean ± SEM).
Where [6] appears, read: plasma, 6 h, read-out: Concentration in Plasma (mean ± SEM).
[7] abbreviates: plasma, 12 h, read-out: Concentration in Plasma (mean ± SEM).
[8] abbreviates: plasma, 24 h, read-out: Concentration in Plasma (mean ± SEM).
[9] abbreviates: tumor, 1 h, read-out: Concentration in Tumor (mean ± SEM).
Setting [10] is: tumor, 6 h, read-out: Concentration in Tumor (mean ± SEM).
[11] abbreviates: tumor, 12 h, read-out: Concentration in Tumor (mean ± SEM).
Setting [12] is: tumor, 24 h, read-out: Concentration in Tumor (mean ± SEM).
The mark [13] stands for this setting: liver, BID × 14 days, read-out: Concentration in Liver (mean ± SEM).
The mark [14] stands for this setting: plasma, BID × 14 days, read-out: Concentration in Plasma (mean ± SEM).

Like-named read-outs stand apart in the source and are kept apart here.

Regarding `Cn1nc(N2CCC(=O)NC2=O)c2cc(F)c(C3CCC(N4CCC5(CC4)CC(n4cnc6ccc(Oc7c(F)ccc(NS(=O)(=O)C8CCCC8)c7C#N)cc6c4=O)C5)CC3)cc21` (single isomer, unassigned) [Compound 93, N-[2-cyano-3-[3-[7-[4-[3-(2,4-dioxohexahydropyrimidin-1-yl)-5-fluoro-1-methyl-indazol-6-yl]cyclohexyl]-7-azaspiro[3.5]nonan-2-yl]-4-oxo-quinazolin-6-yl]oxy-4-fluoro-phenyl]cyclopentanesulfonamide], the concentration at 6 h was determined as 460 ± 32.7 ng/g in data set [1] (setting [3]), 548 ± 28.3 ng/mL in data set [1] (setting [6]) and 129 ± 13.6 ng/g in data set [1] (setting [10]). For the same compound, the concentration at 12 h in data set [1] (setting [4]) was 117 ± 30.2 ng/g; in data set [1] (setting [7]) it was 114 ± 25.6 ng/mL; in data set [1] (setting [11]), 50.6 ± 14.1 ng/g. For the same compound, the concentration at 1 h is 2450 ± 799 ng/mL in data set [1] (setting [5]) and 232 ± 75.6 ng/g in data set [1] (setting [9]). For the same compound, the values for the concentration at 24 h in data set [1] (setting [8]) and in data set [1] (setting [12]) were 2.85 ± 0.408 ng/mL and 59.5 ng/g, respectively.

Turning to `CCN(C)S(=O)(=O)Nc1ccc(F)c(Oc2ccc3ncn(C4CC5(CCN(C6CCC(c7cc8c(cc7F)c(N7CCC(=O)NC7=O)nn8C)CC6F)CC5)C4)c(=O)c3c2)c1C#N` (single isomer, unassigned) [Compound 83, 6-[2-cyano-3-[[ethyl(methyl)sulfamoyl]amino]-6-fluoro-phenoxy]-3-[7-[4-[3-(2,4-dioxohexahydropyrimidin-1-yl)-5-fluoro-1-methyl-indazol-6-yl]-2-fluoro-cyclohexyl]-7-azaspiro[3.5]nonan-2-yl]-4-oxo-quinazoline], the concentration at 6 h was determined as 6990 ± 166 ng/g in data set [1] (setting [3]), 10400 ± 338 ng/mL in data set [1] (setting [6]) and 1820 ± 354 ng/g in data set [1] (setting [10]). In addition, the results for the concentration at 12 h in data set [1] (setting [4]), in data set [1] (setting [7]) and in data set [1] (setting [11]) were 1580 ± 273 ng/g, 2420 ± 572 ng/mL and 751 ± 128 ng/g, respectively. Besides, the results for the concentration at 1 h in data set [1] (setting [5]) and in data set [1] (setting [9]) were 20100 ± 1510 ng/mL and 1650 ± 249 ng/g, respectively. Also, the figures for the concentration at 24 h in data set [1] (setting [8]) and in data set [1] (setting [12]) were 172 ng/mL and 57.6 ± 37 ng/g, respectively.

`CCN(C)S(=O)(=O)Nc1ccc(F)c(Oc2ccc3ncc(C4CC5(CCN(C6CCC(c7cc8c(cc7F)c(N7CCC(=O)NC7=O)nn8C)CC6)CC5)C4)nc3c2)c1C#N` (single isomer, unassigned) [Compound 180, 7-[2-cyano-3-[[ethyl(methyl)sulfamoyl]amino]-6-fluoro-phenoxy]-2-[7-[4-[3-(2,4-dioxohexahydropyrimidin-1-yl)-5-fluoro-1-methyl-indazol-6-yl]cyclohexyl]-7-azaspiro[3.5]nonan-2-yl]quinoxaline]: the figures for the concentration at 6 h in data set [2] (setting [13]) and in data set [2] (setting [14]) were 2400 ± 425 ng/g and 1920 ± 363 ng/mL, respectively.

As to `CCN(C)S(=O)(=O)Nc1ccc(F)c(Oc2ccc3ncn(C4CC5(CCN(C6CC7(C6)CN(c6cc8c(cc6F)c(N6CCC(=O)NC6=O)nn8C)C7)CC5)C4)c(=O)c3c2)c1C#N` (centres unmarked) [Compound 141, 6-[2-cyano-3-[[ethyl(methyl)sulfamoyl]amino]-6-fluoro-phenoxy]-3-[7-[2-[3-(2,4-dioxohexahydropyrimidin-1-yl)-5-fluoro-1-methyl-indazol-6-yl]-2-azaspiro[3.3]heptan-6-yl]-7-azaspiro[3.5]nonan-2-yl]-4-oxo-quinazoline], the concentration at 6 h in data set [2] (setting [13]) is 6570 ± 341 ng/g; in data set [2] (liver, QD × 14 days, read-out: Concentration in Liver (mean ± SEM)), 7500 ± 286 ng/g; in data set [2] (setting [14]), 8750 ± 907 ng/mL; in data set [2] (plasma, QD × 14 days, read-out: Concentration in Plasma (mean ± SEM)), 11000 ± 474 ng/mL.

Consider `CCN(C)S(=O)(=O)Nc1ccc(F)c(Oc2ccc3ncn([C@H]4COC5(CCN(C6CC(c7cc8c(cc7F)c(N7CCC(=O)NC7=O)nn8C)C6)CC5)C4)c(=O)c3c2)c1C#N` (single isomer, unassigned) [Compound 70], for which the “Concentration in Plasma (mean ± SEM)” value was determined as 15100 ± 3559 ng/mL in data set [1] (1 h), 8563 ± 2312 ng/mL in data set [1] (6 h), 2105 ± 800 ng/mL in data set [1] (12 h) and 106 ± 10.8 ng/mL in data set [1] (24 h). The “Concentration in Tumor (mean ± SEM)” value stood at 816 ± 239 ng/g in data set [1] (1 h), 1529 ± 458 ng/g in data set [1] (6 h), 564 ± 206 ng/g in data set [1] (12 h) and 21.9 ± 4.93 ng/g in data set [1] (24 h). Besides, the “Concentration in Liver (mean ± SEM)” value was 4363 ± 1423 ng/g in data set [1] (6 h) and 921 ± 317 ng/g in data set [1] (12 h).

As to `CCN(C)S(=O)(=O)Nc1ccc(F)c(Oc2ccc3ncc(OCC4CCN(C5CCC(c6cc7c(cc6F)c(N6CCC(=O)NC6=O)nn7C)CC5)CC4)nc3c2)c1C#N` (single isomer, unassigned) [Compound 118, 7-[2-cyano-3-[[ethyl(methyl)sulfamoyl]amino]-6-fluoro-phenoxy]-2-[[1-[4-[3-(2,4-dioxohexahydropyrimidin-1-yl)-5-fluoro-1-methyl-indazol-6-yl]cyclohexyl]-4-piperidyl]methoxy]quinoxaline], the concentration at 6 h is 102000 ± 1600 ng/g in data set [2] (setting [13]) and 4160 ± 503 ng/mL in data set [2] (setting [14]).

For the compound `CCN(C)S(=O)(=O)Nc1ccc(F)c(Oc2ccc3ncc([C@@H]4COC5(CCN(C6CCC(c7cc8c(cc7F)c(N7CCC(=O)NC7=O)nn8C)CC6)CC5)C4)nc3c2)c1C#N` (single isomer, unassigned) [Compound 54], the concentration at 6 h in data set [1] (setting [3]) worked out at 4470 ± 501 ng/g; in data set [1] (setting [6]), 3410 ± 703 ng/mL; in data set [1] (setting [10]) it was 931 ± 147 ng/g. For the same compound, the concentration at 12 h turned out to be 650 ± 84.2 ng/g in data set [1] (setting [4]), 605 ± 124 ng/mL in data set [1] (setting [7]) and 477 ± 125 ng/g in data set [1] (setting [11]). Further, the figures for the concentration at 1 h in data set [1] (setting [5]) and in data set [1] (setting [9]) were 7740 ± 1180 ng/mL and 513 ± 28.8 ng/g, respectively. For the same compound, the figures for the concentration at 24 h in data set [1] (setting [8]) and in data set [1] (setting [12]) were 54 ± 9.5 ng/mL and 29.8 ± 2.9 ng/g, respectively.

With `CCN(C)S(=O)(=O)Nc1ccc(F)c(Oc2ccc3ncn(C4CC5(CCN(C6CCN(c7cc8c(cc7F)c(N7CCC(=O)NC7=O)nn8C)CC6)CC5)C4)c(=O)c3c2)c1C#N` [Compound 156, 6-[2-cyano-3-[[ethyl(methyl)sulfamoyl]amino]-6-fluoro-phenoxy]-3-[7-[1-[3-(2,4-dioxohexahydropyrimidin-1-yl)-5-fluoro-1-methyl-indazol-6-yl]-4-piperidyl]-7-azaspiro[3.5]nonan-2-yl]-4-oxo-quinazoline], the values for the concentration at 6 h in data set [2] (setting [13]) and in data set [2] (setting [14]) were 1840 ± 305 ng/g and 1870 ± 359 ng/mL, respectively.
